# Read-outs that look alike come from different tables or passages of the source.
# Tests used:
# [1] = test system: Escherichia coli; experiment: MIC/MBC of nanoemulsions against gram-negative isolates (CLSI, alamar blue); assay type: cell-based; settings: Escherichia coli (n = 5)
# [2] = test system: Stenotrophomonas maltophilia; experiment: as above; assay type: cell-based; settings: Stenotrophomonas maltophilia (n = 5); nanoemulsions in the presence of 5 mM EDTA
# [3] = test system: Burkholderia cepacia; experiment: as above; assay type: cell-based; settings: Burkholderia cepacia (n = 5), nanoemulsions in the presence of 5 mM EDTA
# [4] = test system: Pseudomonas aeruginosa; experiment: as above; assay type: cell-based; settings: Pseudomonas aeruginosa (n = 5)
# [5] = test system: Stenotrophomonas maltophilia; experiment: MIC/MBC against CF isolates (CLSI, alamar blue); settings: for MBC / MIC: Stenotrophomonas maltophilia
# [6] = test system: Acinetobacter baumannii; experiment: MIC/MBC of nanoemulsions against gram-negative isolates (CLSI, alamar blue); assay type: cell-based; settings: Acinetobacter baumannii (n = 5)
# [7] = test system: Burkholderia cenocepacia; experiment: MIC/MBC against CF isolates (CLSI, alamar blue); settings: for MBC / MIC: Burkholderia cenocepacia
# [8] = test system: Acinetobacter baumannii; experiment: MIC/MBC against clinical isolates (CLSI, alamar blue)
# [9] = test system: Proteus mirabilis; experiment: MIC/MBC of nanoemulsions against gram-negative isolates (CLSI, alamar blue); assay type: cell-based; settings: Proteus mirabilis (n = 5)
# [10] = test system: Klebsiella pneumoniae; experiment: as above; assay type: cell-based; settings: Klebsiella pneumoniae (n = 5)
# [11] = test system: Pseudomonas aeruginosa; experiment: MIC/MBC against CF isolates (CLSI, alamar blue); settings: Pseudomonas aeruginosa
# [12] = nanoemulsions in the presence of 5 mM EDTA
# [13] = nanoemulsions in the presence of 5 mM EDTA, in µg/mL
# [14] = CF Stenotrophomonas isolate NB41
# [15] = CF Stenotrophomonas isolate NB42
# [16] = CF Stenotrophomonas isolate NB43
# [17] = CF Stenotrophomonas isolate NB44
# [18] = CF Stenotrophomonas isolate NB45
# [19] = CF Stenotrophomonas isolate Steno 1
# [20] = CF Stenotrophomonas isolate Steno 2
# [21] = CF Stenotrophomonas isolate Steno 3
# [22] = CF Stenotrophomonas isolate Steno 4
# [23] = CF Stenotrophomonas isolate Steno 6
# [24] = CF Stenotrophomonas isolate Steno 8
# [25] = Stenotrophomonas, each drug alone
# [26] = Acinetobacter baumannii, Acinetobacter isolate NB31
# [27] = Acinetobacter baumannii, Acinetobacter isolate NB32
# [28] = Acinetobacter baumannii, Acinetobacter isolate NB33
# [29] = Acinetobacter baumannii, Acinetobacter isolate NB34
# [30] = Acinetobacter baumannii, Acinetobacter isolate NB35
# [31] = Acinetobacter baumannii, Acinetobacter isolate NB36
# [32] = Acinetobacter baumannii, Acinetobacter isolate NB37
# [33] = Acinetobacter baumannii, Acinetobacter isolate NB38
# [34] = Acinetobacter baumannii, Acinetobacter isolate NB39
# [35] = Acinetobacter baumannii, Acinetobacter isolate NB40
structure (smiles),measurement,setting,value
NC[C@H]1O[C@H](O[C@H]2[C@H](O)[C@@H](O[C@H]3O[C@H](CO)[C@@H](O)[C@H](N)[C@H]3O)[C@H](N)C[C@@H]2N)[C@H](N)C[C@@H]1O [Tobramycin],% resistant,[1],20.0%
same,% susceptible,[1],80.0%
same,MIC50,[1]; [12],0.5 µg/mL
same,MIC Range,[1]; [13],0.25-16
same,MIC50,[2],> 16 µg/mL
same,MIC50,[3],> 16 µg/mL
same,MIC Range,[3]; in µg/mL,>16
same,% resistant,[4],0.0%
same,% susceptible,[4],100.0%
same,MIC50,[4]; [12],0.5 µg/mL
same,MIC Range,[4]; [13],0.25-1
same,MBC,[5]; [14],> 32 µg/mL
same,MIC,[5]; [14],> 32 µg/mL
same,MBC,[5]; [15],> 32 µg/mL
same,MIC,[5]; [15],32 µg/mL
same,MBC,[5]; [16],> 32 µg/mL
same,MIC,[5]; [16],> 32 µg/mL
same,MBC,[5]; [17],> 32 µg/mL
same,MIC,[5]; [17],> 32 µg/mL
same,MBC,[5]; [18],> 32 µg/mL
same,MIC,[5]; [18],> 32 µg/mL
same,MBC,[5]; [19],> 32 µg/mL
same,MIC,[5]; [19],> 32 µg/mL
same,MBC,[5]; [20],> 32 µg/mL
same,MIC,[5]; [20],> 32 µg/mL
same,MBC,[5]; [21],> 32 µg/mL
same,MIC,[5]; [21],> 32 µg/mL
same,MBC,[5]; [22],> 32 µg/mL
same,MIC,[5]; [22],> 32 µg/mL
same,MBC,[5]; [23],32 µg/mL
same,MIC,[5]; [23],16 µg/mL
same,MBC,[5]; [24],> 32 µg/mL
same,MIC,[5]; [24],> 32 µg/mL
same,MBC 50,[5]; [25],>32 µg/mL
same,MBC 90,[5]; [25],>32 µg/mL
same,MIC50,[5]; [25],>32 µg/mL
same,MIC90,[5]; [25],>32 µg/mL
same,% resistant,[6],20.0%
same,% susceptible,[6],80.0%
same,MIC50,[6]; [12],0.5 µg/mL
same,MBC,[7]; CF Burkholderia isolate NB21,> 32 µg/mL
same,MIC,[7]; CF Burkholderia isolate NB21,32 µg/mL
same,MBC,[7]; CF Burkholderia isolate NB22,> 32 µg/mL
same,MIC,[7]; CF Burkholderia isolate NB22,> 32 µg/mL
same,MBC,[7]; CF Burkholderia isolate NB23,> 32 µg/mL
same,MIC,[7]; CF Burkholderia isolate NB23,> 32 µg/mL
same,MBC,[7]; CF Burkholderia isolate NB24,> 32 µg/mL
same,MIC,[7]; CF Burkholderia isolate NB24,> 32 µg/mL
same,MBC,[7]; CF Burkholderia isolate NB25,> 32 µg/mL
same,MIC,[7]; CF Burkholderia isolate NB25,> 32 µg/mL
same,MBC,[7]; CF Burkholderia isolate NB26,> 32 µg/mL
same,MIC,[7]; CF Burkholderia isolate NB26,> 32 µg/mL
same,MBC,[7]; CF Burkholderia isolate NB27,> 32 µg/mL
same,MIC,[7]; CF Burkholderia isolate NB27,> 32 µg/mL
same,MBC,[7]; CF Burkholderia isolate NB28b,4 µg/mL
same,MIC,[7]; CF Burkholderia isolate NB28b,1 µg/mL
same,MBC,[7]; CF Burkholderia isolate NB29,> 32 µg/mL
same,MIC,[7]; CF Burkholderia isolate NB29,> 32 µg/mL
same,MBC,[7]; CF Burkholderia isolate NB30,32 µg/mL
same,MIC,[7]; CF Burkholderia isolate NB30,32 µg/mL
same,MBC 50,"[7]; Burkholderia, each drug alone",>32 µg/mL
same,MBC 90,"[7]; Burkholderia, each drug alone",>32 µg/mL
same,MIC90,"[7]; Burkholderia, each drug alone",>32 µg/mL
same,MIC50,[8]; Acinetobacter baumannii,1 µg/mL
same,MIC90,[8]; Acinetobacter baumannii,16 µg/mL
same,MBC,[8]; [26],1 µg/mL
same,MIC,[8]; [26],1 µg/mL
same,MBC,[8]; [27],4 µg/mL
same,MIC,[8]; [27],1 µg/mL
same,MBC,[8]; [28],8 µg/mL
same,MIC,[8]; [28],2 µg/mL
same,MBC,[8]; [29],> 32 µg/mL
same,MIC,[8]; [29],16 µg/mL
same,MBC,[8]; [30],16 µg/mL
same,MIC,[8]; [30],2 µg/mL
same,MBC,[8]; [31],0.5 µg/mL
same,MIC,[8]; [31],0.5 µg/mL
same,MBC,[8]; [32],2 µg/mL
same,MIC,[8]; [32],0.5 µg/mL
same,MBC,[8]; [33],16 µg/mL
same,MIC,[8]; [33],1 µg/mL
same,MBC,[8]; [34],4 µg/mL
same,MIC,[8]; [34],2 µg/mL
same,MBC,[8]; [35],> 32 µg/mL
same,MIC,[8]; [35],> 32 µg/mL
same,MBC,"[8]; Acinetobacter baumannii, read-out: MBC 50, 10 Acinetobacter isolates",4 µg/mL
same,MBC,"[8]; Acinetobacter baumannii, read-out: MBC 50, Acinetobacter, each drug alone",4 µg/mL
same,MBC 90,"[8]; Acinetobacter, each drug alone",>32 µg/mL
same,MIC50,"[8]; Acinetobacter, each drug alone",1 µg/mL
same,MIC90,"[8]; Acinetobacter, each drug alone",16 µg/mL
same,% resistant,[9],0.0%
same,% susceptible,[9],100.0%
same,MIC50,[9]; [12],1 µg/mL
same,MIC Range,[9]; [13],0.25-1
same,% resistant,[10],20.0%
same,% susceptible,[10],80.0%
same,MIC50,[10]; [12],0.25 µg/mL
same,MIC Range,[10]; [13],0.25-16
same,MIC50,[11],1 µg/mL
same,MIC90,[11],16 µg/mL
same,MBC,[11]; CF Pseudomonas isolate NB1,16 µg/mL
same,MIC,[11]; CF Pseudomonas isolate NB1,1 µg/mL
same,MBC,[11]; CF Pseudomonas isolate NB2,2 µg/mL
same,MIC,[11]; CF Pseudomonas isolate NB2,0.25 µg/mL
same,MBC,[11]; CF Pseudomonas isolate NB3,4 µg/mL
same,MIC,[11]; CF Pseudomonas isolate NB3,0.5 µg/mL
same,MBC,[11]; CF Pseudomonas isolate NB4,4 µg/mL
same,MIC,[11]; CF Pseudomonas isolate NB4,0.5 µg/mL
same,MBC,[11]; CF Pseudomonas isolate NB5,4 µg/mL
same,MIC,[11]; CF Pseudomonas isolate NB5,0.5 µg/mL
same,MBC,[11]; CF Pseudomonas isolate NB6,4 µg/mL
same,MIC,[11]; CF Pseudomonas isolate NB6,0.5 µg/mL
same,MBC,[11]; CF Pseudomonas isolate NB7,> 16 µg/mL
same,MIC,[11]; CF Pseudomonas isolate NB7,1 µg/mL
same,MBC,[11]; CF Pseudomonas isolate NB8,8 µg/mL
same,MIC,[11]; CF Pseudomonas isolate NB8,1 µg/mL
same,MBC,[11]; CF Pseudomonas isolate NB9,8 µg/mL
same,MIC,[11]; CF Pseudomonas isolate NB9,1 µg/mL
same,MBC,[11]; CF Pseudomonas isolate NB10,4 µg/mL
same,MIC,[11]; CF Pseudomonas isolate NB10,0.5 µg/mL
same,MBC,[11]; CF Pseudomonas isolate NB11,4 µg/mL
same,MIC,[11]; CF Pseudomonas isolate NB11,2 µg/mL
same,MBC,[11]; CF Pseudomonas isolate NB12,8 µg/mL
same,MIC,[11]; CF Pseudomonas isolate NB12,0.5 µg/mL
same,MBC,[11]; CF Pseudomonas isolate NB13,4 µg/mL
same,MIC,[11]; CF Pseudomonas isolate NB13,1 µg/mL
same,MBC,[11]; CF Pseudomonas isolate NB14,> 32 µg/mL
same,MIC,[11]; CF Pseudomonas isolate NB14,32 µg/mL
same,MBC,[11]; CF Pseudomonas isolate NB15,8 µg/mL
same,MIC,[11]; CF Pseudomonas isolate NB15,0.5 µg/mL
same,MBC,[11]; CF Pseudomonas isolate NB16,16 µg/mL
same,MIC,[11]; CF Pseudomonas isolate NB16,2 µg/mL
same,MBC,[11]; CF Pseudomonas isolate NB17,32 µg/mL
same,MIC,[11]; CF Pseudomonas isolate NB17,16 µg/mL
same,MBC,[11]; CF Pseudomonas isolate NB18,> 32 µg/mL
same,MIC,[11]; CF Pseudomonas isolate NB18,16 µg/mL
same,MBC,[11]; CF Pseudomonas isolate NB19,16 µg/mL
same,MIC,[11]; CF Pseudomonas isolate NB19,2 µg/mL
same,MBC,[11]; CF Pseudomonas isolate NB20,8 µg/mL
same,MIC,[11]; CF Pseudomonas isolate NB20,0.5 µg/mL
same,MBC,"[11]; read-out: MBC 50, 20 CF Pseudomonas isolates",8 µg/mL
same,MBC,"[11]; read-out: MBC 50, second MBC 50 line of the summary, Stenotrophomonas, values equal those of the CF Pseudomonas isolates",8 µg/mL
same,MBC,"[11]; read-out: MBC 90, 20 CF Pseudomonas isolates",> 16 µg/mL
same,MBC,"[11]; read-out: MBC 90, second MBC 90 line of the summary, Stenotrophomonas, values equal those of the CF Pseudomonas isolates",> 16 µg/mL

# Reference: patent US20100092526A1, “NANOEMULSION THERAPEUTIC COMPOSITIONS AND METHODS OF USING THE SAME” (NanoBio Corporation, priority 2008, published 2010)
